Measured values: patent publication US9447042B2, “Endoparasite control agent” (THE UNIVERSITY OF TOKYO, priority 2011, dated 2016)
Where two headings read alike, the source gives them in different places.

What was measured:
[1] = molecular target: T1, Ascaris suum succinate-ubiquinone reductase (mitochondrial complex II) (Ascaris suum, UniProt O44074+P92506+P92507); test: In vitro inhibitory activity on Ascaris suum succinate-ubiquinone reductase (mitochondrial complex II); format: biochemical; details: for Selectivity B/A: porcine IC50 (B) / Ascaris suum IC50 (A)
T1 construct: from tissue; host or cells: mitochondria from adult Ascaris suum muscle
Method: In Vitro Measurement of Inhibitory Activity on Ascaris suum Succinate-Ubiquinone Reductase (Mitochondrial Complex II)
(§1) To a solution containing 50 mM potassium phosphate (pH 7.4) and 0.1% (w/v) sucrose monolaurate, an electron acceptor ubiquinone-2 (UQ2) was added at a final concentration of 60 μM, and the mixture was allowed to stand at 25° C. for 20 minutes. To this, potassium cyanide (final concentration: 2 mM) and mitochondria prepared from adult Ascaris suum muscle were added, and thorough mixing was done. To aliquots of the mixture, an inhibitor to be tested was added at various concentrations, and the mixtures were allowed to stand at 25° C. for 3 minutes. The enzymatic reaction was initiated by addition of potassium succinate (final concentration: 10 mM).
(§2) In the table, “-” indicates “not tested,” and “Ascaris suum IC50 value (A)” indicates an IC50 value (50% inhibitory concentration) for inhibition of succinate-ubiquinone reductase (mitochondrial complex II) of Ascaris suum. From the extent of inhibition of this respiratory enzyme, the parasite control activity can be estimated. “Porcine mitochondria IC50 value (B)” indicates an IC50 value for inhibition of succinate-ubiquinone reductase (mitochondrial complex II) of the host pig. From the extent of inhibition of this respiratory enzyme, the influence on the host can be estimated. A greater selectivity index B/A indicates a higher safety for the host.

[2] = molecular target: T2, Porcine succinate-ubiquinone reductase (mitochondrial complex II) (Sus scrofa, UniProt A5GZW8+D0VWV4+Q007T0); test: In vitro inhibitory activity on porcine succinate-ubiquinone reductase (mitochondrial complex II); format: biochemical, pig
T2 construct: from tissue; host or cells: mitochondria from porcine heart muscle
Method: In Vitro Measurement of Inhibitory Activity on Porcine Succinate-Ubiquinone Reductase (Mitochondrial Complex II)
as §1, with “porcine heart” for “adult Ascaris suum”
as §2

Haemonchus contortus = test: Larval migration inhibition assay (LMIA) on Haemonchus contortus; format: in vivo; details: third-stage larvae
Method: In Vivo Activity on Haemonchus contortus
The test was conducted according to the larval migration inhibition assay (LMIA: Demeler et al., 2010). A larval suspension was prepared so as to contain 100 to 120 third-stage larvae of Haemonchus contortus per 20 μL, and then 20 μL of the larval suspension was added to each well on a breeding plate to which compound solutions adjusted to predetermined concentrations were previously added at […] each. The breeding plate was maintained for breeding at 28° C. for 24 hours. Meanwhile, to a plate for larval migration observation, 400 μL of a 1.5% agar solution was added and left to stand until coagulation. Then, the larvae were allowed to migrate through a sieve from the breeding plate to the plate for larval migration observation, and the plates were maintained for breeding at 28° C. for another 24 hours. The larvae which had migrated, and the larvae which had not migrated were counted, the percentage of migration inhibition was calculated, and the activity was graded based on the following criterion. In the table, “-” indicates “not tested.”
Percentage of Migration Inhibition

[3] = at 90 μM, porcine heart muscle mitochondria
[4] = at 9 μM, porcine heart muscle mitochondria
[5] = mitochondria from adult Ascaris suum muscle, read-out: Ascaris suum IC50 value (A)
[6] = mitochondria from porcine heart muscle, read-out: Porcine mitochondria IC50 value (B)

T2 sequence (Q007T0 29-280): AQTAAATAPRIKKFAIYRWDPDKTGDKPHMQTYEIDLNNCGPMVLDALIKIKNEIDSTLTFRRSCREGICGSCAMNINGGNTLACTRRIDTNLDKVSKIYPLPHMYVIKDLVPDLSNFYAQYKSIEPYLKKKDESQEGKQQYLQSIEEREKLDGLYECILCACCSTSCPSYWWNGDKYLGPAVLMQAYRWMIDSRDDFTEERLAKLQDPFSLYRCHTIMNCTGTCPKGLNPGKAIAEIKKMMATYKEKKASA
T2 sequence (D0VWV4 30-169): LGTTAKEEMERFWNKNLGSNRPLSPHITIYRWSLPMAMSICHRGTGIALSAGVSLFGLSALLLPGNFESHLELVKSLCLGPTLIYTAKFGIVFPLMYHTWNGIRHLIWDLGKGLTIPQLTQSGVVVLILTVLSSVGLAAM
T2 sequence (A5GZW8 57-159 limits assumed): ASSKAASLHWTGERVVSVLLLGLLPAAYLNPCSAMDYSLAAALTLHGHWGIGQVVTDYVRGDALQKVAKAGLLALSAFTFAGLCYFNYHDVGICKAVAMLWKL
T2 sequence (Q0QF01 43-664 partner): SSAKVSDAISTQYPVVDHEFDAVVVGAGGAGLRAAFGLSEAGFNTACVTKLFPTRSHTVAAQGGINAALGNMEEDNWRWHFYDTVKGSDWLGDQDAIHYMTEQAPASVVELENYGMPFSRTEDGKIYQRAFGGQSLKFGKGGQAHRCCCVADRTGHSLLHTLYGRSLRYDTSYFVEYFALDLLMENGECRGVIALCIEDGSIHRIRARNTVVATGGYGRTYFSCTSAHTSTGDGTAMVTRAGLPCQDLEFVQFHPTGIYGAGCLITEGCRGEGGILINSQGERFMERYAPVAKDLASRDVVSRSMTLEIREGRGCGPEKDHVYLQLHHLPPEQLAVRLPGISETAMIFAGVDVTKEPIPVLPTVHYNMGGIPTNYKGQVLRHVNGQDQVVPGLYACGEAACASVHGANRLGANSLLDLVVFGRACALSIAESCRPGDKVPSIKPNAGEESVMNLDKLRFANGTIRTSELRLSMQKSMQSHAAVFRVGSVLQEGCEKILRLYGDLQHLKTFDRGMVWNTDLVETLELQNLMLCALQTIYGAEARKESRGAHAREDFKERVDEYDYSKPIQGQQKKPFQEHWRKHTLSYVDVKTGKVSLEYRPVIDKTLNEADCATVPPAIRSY
T1 sequence (O44074 22-282): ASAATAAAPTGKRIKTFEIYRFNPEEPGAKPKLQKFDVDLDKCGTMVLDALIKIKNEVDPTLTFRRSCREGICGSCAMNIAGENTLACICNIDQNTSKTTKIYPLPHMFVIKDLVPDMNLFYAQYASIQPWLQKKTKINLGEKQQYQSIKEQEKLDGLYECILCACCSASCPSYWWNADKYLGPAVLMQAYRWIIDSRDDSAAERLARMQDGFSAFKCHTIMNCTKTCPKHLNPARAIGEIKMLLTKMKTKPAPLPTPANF
T1 sequence (P92506 32-188): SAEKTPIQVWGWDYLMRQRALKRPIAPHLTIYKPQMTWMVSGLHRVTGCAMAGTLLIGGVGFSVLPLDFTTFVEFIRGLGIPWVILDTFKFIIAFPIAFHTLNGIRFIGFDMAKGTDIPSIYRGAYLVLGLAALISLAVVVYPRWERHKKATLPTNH
T1 sequence (P92507 26-156): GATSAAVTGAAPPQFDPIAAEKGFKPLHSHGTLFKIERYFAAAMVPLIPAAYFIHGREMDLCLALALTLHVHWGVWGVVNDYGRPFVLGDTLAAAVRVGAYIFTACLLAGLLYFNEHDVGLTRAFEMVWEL
T1 sequence (Q33862 19-645 partner): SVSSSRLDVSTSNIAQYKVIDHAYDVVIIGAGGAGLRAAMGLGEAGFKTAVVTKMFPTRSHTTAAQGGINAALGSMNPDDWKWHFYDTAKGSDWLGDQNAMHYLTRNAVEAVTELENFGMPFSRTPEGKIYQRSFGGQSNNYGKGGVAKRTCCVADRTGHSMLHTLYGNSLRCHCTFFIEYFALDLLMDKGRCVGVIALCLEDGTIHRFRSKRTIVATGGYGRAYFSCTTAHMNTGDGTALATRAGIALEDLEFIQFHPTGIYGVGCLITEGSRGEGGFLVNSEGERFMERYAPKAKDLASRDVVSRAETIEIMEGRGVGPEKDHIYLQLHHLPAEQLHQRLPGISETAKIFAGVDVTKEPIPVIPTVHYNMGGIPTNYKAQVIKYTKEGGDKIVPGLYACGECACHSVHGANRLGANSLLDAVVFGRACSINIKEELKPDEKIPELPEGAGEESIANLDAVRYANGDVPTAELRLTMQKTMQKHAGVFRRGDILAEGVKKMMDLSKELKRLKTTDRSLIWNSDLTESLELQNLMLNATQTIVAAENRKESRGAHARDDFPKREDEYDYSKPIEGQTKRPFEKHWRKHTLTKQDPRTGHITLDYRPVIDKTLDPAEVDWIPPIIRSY

Structure (SMILES)	IC50 [1]	Selectivity B/A [1]	Porcine mitochondria inhibition at 90 μM [2, 3]	IC50 [1, 5]	other results
O=C(NCCc1ccc(Cl)cc1)c1ccccc1C(F)(F)F [Compound 1-3]	1.21 nM	>27000	no inhibition at 90 μM		
O=C(NCCc1ccc(Cl)cc1Cl)c1ccccc1C(F)(F)F [Compound 1-16]	3.34 nM	>74400	no inhibition at 90 μM		Percentage of migration inhibition (grade) (Haemonchus contortus; 0.1 ppm): C (10 to 39%); Percentage of migration inhibition (grade) (Haemonchus contortus; 1 ppm): C (10 to 39%); Percentage of migration inhibition (grade) (Haemonchus contortus; 10 ppm): C (10 to 39%); Percentage of migration inhibition (grade) (Haemonchus contortus; 100 ppm): B (40 to 69%)
Cc1ccc(CCNC(=O)c2ccccc2C(F)(F)F)c(C)c1 [Compound 1-27]	1.69 nM	>53300	no inhibition at 90 μM		
CC(Cc1ccc(Cl)cc1Cl)NC(=O)c1ccccc1C(F)(F)F (stereo not drawn) [Compound 1-32]	2.15 nM	>4190			Porcine mitochondria inhibition at 9 μM [2, 4]: no inhibition at 9 μM; Percentage of migration inhibition (grade) (Haemonchus contortus; 0.1 ppm): C (10 to 39%); Percentage of migration inhibition (grade) (Haemonchus contortus; 1 ppm): C (10 to 39%); Percentage of migration inhibition (grade) (Haemonchus contortus; 10 ppm): B (40 to 69%)
CC(Cc1ccc(F)cc1F)NC(=O)c1ccccc1C(F)(F)F (stereo not drawn) [Compound 1-64]	9 nM	>9150			Porcine mitochondria inhibition at 9 μM [2, 4]: no inhibition at 9 μM
CC(Cc1ccc(Cl)c(Cl)c1)NC(=O)c1ccccc1C(F)(F)F (stereo not drawn) [Compound 1-81]	4.8 nM	>18800			inhibition at 90 µM [2, 3]: 10%
CC(C)(Cc1ccc(Cl)c(Cl)c1)NC(=O)c1ccccc1C(F)(F)F [Compound 1-88]	12 nM				
O=C(NCCc1c(Cl)cc(C(F)(F)F)cc1Cl)c1ccccc1C(F)(F)F [Compound 1-110]	4.07 nM	>2460			Porcine mitochondria inhibition at 10 μM ([2]; at 10 μM, porcine heart muscle mitochondria): no inhibition at 10 μM
O=C(NCCc1ccccc1)c1ccccc1C(F)(F)F [Compound 1-111]	13.1 nM	>6870	no inhibition at 90 μM		
CC(C)(CNC(=O)c1ccccc1C(F)(F)F)c1ccc(Cl)cc1Cl [Compound 1-112]	1.5 nM	>60000	no inhibition at 90 μM		
CC(C)(C)c1ccc(CNC(=O)c2ccccc2C(F)(F)F)cc1 [Compound 2-1]		20295		5.47 nM	IC50 [2, 6]: 111000 nM; Percentage of migration inhibition (grade) (Haemonchus contortus; 0.1 ppm): C (10 to 39%); Percentage of migration inhibition (grade) (Haemonchus contortus; 1 ppm): B (40 to 69%)
CC(C)(NC(=O)c1ccccc1C(F)(F)F)c1ccccc1 [Compound 2-3]		>709	no inhibition at 90 μM	127 nM	
O=C(NC(c1ccc(Cl)cc1)C1CC1)c1ccccc1C(F)(F)F (stereo not drawn) [Compound 2-4]		>1280	no inhibition at 90 μM	70.5 nM	
Cc1cc(CNC(=O)c2ccccc2C(F)(F)F)ccc1-c1ccc(OC(F)(F)F)cc1 [Compound 2-5]		>2350		3.83 nM	Porcine mitochondria inhibition at 9 μM [2, 4]: no inhibition at 9 μM
O=C(NCc1ccc(Cl)cc1Cl)c1ccccc1C(F)(F)F [Compound 2-6]		>3180	10% at 90 μM	28.3 nM	Percentage of migration inhibition (grade) (Haemonchus contortus; 0.1 ppm): C (10 to 39%); Percentage of migration inhibition (grade) (Haemonchus contortus; 1 ppm): C (10 to 39%); Percentage of migration inhibition (grade) (Haemonchus contortus; 10 ppm): C (10 to 39%)
CC(NC(=O)c1ccccc1C(F)(F)F)c1ccc(Cl)cc1Cl (stereo not drawn) [Compound 2-7]		>6430	no inhibition at 90 μM	14 nM	
CC(NC(=O)c1ccccc1C(F)(F)F)c1ccc(Cl)cc1 (stereo not drawn) [Compound 2-8]		>2360	no inhibition at 90 μM	38.2 nM	
O=C(NCCc1ncc(C(F)(F)F)cc1Cl)c1ccccc1C(F)(F)F [Compound 3-7]	1.6 nM	56250			IC50 [2]: 90000 nM; Percentage of migration inhibition (grade) (Haemonchus contortus; 0.1 ppm): C (10 to 39%); Percentage of migration inhibition (grade) (Haemonchus contortus; 1 ppm): C (10 to 39%); Percentage of migration inhibition (grade) (Haemonchus contortus; 10 ppm): C (10 to 39%); Percentage of migration inhibition (grade) (Haemonchus contortus; 100 ppm): B (40 to 69%)
O=C(NCCOc1ccc(Cl)cc1Cl)c1ccccc1C(F)(F)F [Compound 4-1]	3.44 nM				Percentage of migration inhibition (grade) (Haemonchus contortus; 0.1 ppm): C (10 to 39%); Percentage of migration inhibition (grade) (Haemonchus contortus; 1 ppm): C (10 to 39%); Percentage of migration inhibition (grade) (Haemonchus contortus; 10 ppm): C (10 to 39%)
CC(COc1ccc(Cl)cc1Cl)NC(=O)c1ccccc1C(F)(F)F (stereo not drawn) [Compound 4-2]	5.15 nM				
Cc1ccc(OCCNC(=O)c2ccccc2C(F)(F)F)c(C)c1 [Compound 4-3]	1.98 nM				
O=C(NCCCOc1ccc(Cl)cc1Cl)c1ccccc1C(F)(F)F [Compound 4-4]		>10770	16% at 90 μM	8.36 nM	
Cc1ccc(SCCCNC(=O)c2ccccc2C(F)(F)F)c(C)c1 [Compound 4-5]		>14830	11% at 90 μM	6.07 nM	
O=C(NCCCSc1ccc(Cl)cc1Cl)c1ccccc1C(F)(F)F [Compound 4-6]		>1079		8.34 nM	Porcine mitochondria inhibition at 9 μM [2, 4]: no inhibition at 9 μM
O=C(NCCCc1ccc(Cl)cc1Cl)c1ccccc1C(F)(F)F [Compound 4-7]	1.78 nM	57870			IC50 [2, 6]: 103000 nM; Percentage of migration inhibition (grade) (Haemonchus contortus; 0.1 ppm): C (10 to 39%); Percentage of migration inhibition (grade) (Haemonchus contortus; 1 ppm): C (10 to 39%); Percentage of migration inhibition (grade) (Haemonchus contortus; 10 ppm): C (10 to 39%); Percentage of migration inhibition (grade) (Haemonchus contortus; 100 ppm): B (40 to 69%)
CC(CCc1ccc(Cl)cc1Cl)NC(=O)c1ccccc1C(F)(F)F (stereo not drawn) [Compound 4-8]	2.61 nM	>3448			inhibition at 9 µM [2, 4]: 5%
